Measurements from patent publication EP1643252B1 (priority 2004, dated 2009).

Assays:
[1] = system: PrP^Sc; details: brain homogenate of prion disease infected animal and human; biotinylated peptide on streptavidin magnetic beads
[2] = system: cellular prion protein; details: from individual with no prion disease

| Sequence | ability to capture PrP^Sc from brain homogenate [1] | capture of cellular prion protein [2] |
| --- | --- | --- |
| AQKKDGKKRKRSRKESYSIYV [peptide-7] | capture PrP^Sc | do not capture cellular prion protein |
| NWCKRGRKNCKTH [peptide-2] | capture PrP^Sc | do not capture cellular prion protein |
| NYKKPKLG [peptide-3] | capture PrP^Sc | do not capture cellular prion protein |
| WQPPRARI [peptide-1] | capture PrP^Sc | do not capture cellular prion protein |
| YRGRYGYKGKYGYRG [peptide-6] | capture PrP^Sc | do not capture cellular prion protein |
| YRGYRGYRGYRG [peptide-5] | capture PrP^Sc | do not capture cellular prion protein |
